Source: US20100227921A1, “AMINO ACID AND PEPTIDE CARBAMATE PRODRUGS OF […] USES THEREOF” (SHIRE LLC, priority 2009, published 2010)
Several values for one entry are separate records, joined by “and”; a condition that tells them apart may be missing. Equal entries are not always repeated. Where two headings read alike, the source gives them in different places. Marks after values point to notes of the source that are not given here.

Assays:
[1] = Comparative bioavailability after oral administration to rats (plasma LC-MS-MS); type: in vivo
Experimental: Test substances, i.e., tapentadol or tapentadol valine carbamate were administered by oral gavage to groups of male Sprague Dawley rats.
Blood samples were taken at various times after administration and submitted to analysis for the parent drug and pro-drug using a validated LC-MS-MS assay. Pharmacokinetic parameters derived from the plasma analytical data were determined using Win Nonlin.

[2] = Comparative bioavailability after oral or intravenous administration to monkeys (plasma LC-MS-MS); type: in vivo, cynomolgus monkey; conditions: cynomolgus monkey, plasma, iv, male monkey, i.v. tapentadol valine carbamate 0.5 mg tapentadol free base equiv/kg, individual animals 1-5
Experimental: Test substances i.e., tapentadol and tapentadol valine carbamate were administered (either intravenously or orally) to a group of five male cynomolgus monkeys in a three way crossover design. The oral doses were given at 1 mg tapentadol base equivalents/kg while the intravenous dose was 0.5 mg/kg
Blood samples were taken at various times after administration and submitted to analysis for the parent drug and tapentadol valine carbamate using a validated LC-MS-MS assay. Pharmacokinetic parameters derived from the plasma analytical data were determined using Win Nonlin.

[3] = male rat, oral tapentadol valine carbamate 10 mg tapentadol free base equiv/kg, individual animals 6-10

With CC[C@H](c1cccc(OC(=O)N[C@H](C(=O)O)C(C)C)c1)[C@H](C)CN(C)C (racemic) [Tapentadol valine carbamate, 2-[3-(3-Dimethylamino-1-ethyl-2-methyl-propyl)-phenoxycarbonylamino]-3-methyl-butyric acid] the “Plasma concentration of tapentadol valine carbamate” value (“Plasma concentration” below) ([1]; male rat, oral tapentadol valine carbamate 10 mg tapentadol free base equiv/kg, 6 h, individual animals 6-10) was 19.9 ng/mL and 38.9 ng/mL and 22.7 ng/mL and 31.3 ng/mL, the “Plasma concentration” value ([1]; male rat, oral tapentadol valine carbamate 10 mg tapentadol free base equiv/kg, 8 h, individual animals 6-10) was 32.7 ng/mL and 14.6 ng/mL and 26.5 ng/mL and 21.3 ng/mL and 25.4 ng/mL and the “Plasma concentration” value ([1]; male rat, oral tapentadol valine carbamate 10 mg tapentadol free base equiv/kg, 12 h, individual animals 6-10) was 9.49 ng/mL and 27.0 ng/mL and 11.4 ng/mL and 5.81 ng/mL and 14.5 ng/mL. For the same molecule, the “Plasma concentration” value ([1]; male rat, oral tapentadol valine carbamate 10 mg tapentadol free base equiv/kg, 24 h, individual animals 6-10) was 2.00 ng/mL and 0.915 ng/mL and 0.801 ng/mL and 0.656 ng/mL and 0.548 ng/mL, the “AUCt of tapentadol valine carbamate” value [1, 3] was 599 ng·h/mL and 615 ng·h/mL and 413 ng·h/mL and 650 ng·h/mL and the “Cmax of tapentadol valine carbamate” value [1, 3] was 79.5 ng/mL and 106 ng/mL and 83.1 ng/mL and 115 ng/mL. The “T>50%Cmax of tapentadol valine carbamate” value [1, 3] was 2.5 h (2×) and 3.5 h (2×) and 1.5 h, the “Tmax of tapentadol valine carbamate” value [1, 3] was 2 h and the “t½ of tapentadol valine carbamate” value [1, 3] was 3.83 h and 3.16 h and 3.60 h and 3.06 h. The “T>50%Cmax of tapentadol valine carbamate” value ([1]; male rat, oral tapentadol valine carbamate 10 mg tapentadol free base equiv/kg, median) was 2.5^a h, the “Peak plasma levels of tapentadol compared with those after administration of the parent drug” value ([1]; male rat, oral, 10 mg tapentadol free base equiv/kg) was “somewhat lower” and the concentration at 0.5 h ([1]; male, Sprague Dawley, rat, plasma, po, 10 mg tapentadol free base equiv/kg, oral tapentadol valine carbamate 10 mg tapentadol free base equiv/kg, 0.5 h, mean, read-out: Plasma concentration of tapentadol valine carbamate) was 83.8 ng/mL. For the same molecule, the concentration at 1 h ([1]; male, Sprague Dawley, rat, plasma, po, 10 mg tapentadol free base equiv/kg, oral tapentadol valine carbamate 10 mg tapentadol free base equiv/kg, 1 h, mean, read-out: Plasma concentration of tapentadol valine carbamate) was 86.6 ng/mL, the concentration at 2 h ([1]; male, Sprague Dawley, rat, plasma, po, 10 mg tapentadol free base equiv/kg, oral tapentadol valine carbamate 10 mg tapentadol free base equiv/kg, 2 h, mean, read-out: Plasma concentration of tapentadol valine carbamate) was 82.4 ng/mL and the concentration at 3 h ([1]; male, Sprague Dawley, rat, plasma, po, 10 mg tapentadol free base equiv/kg, oral tapentadol valine carbamate 10 mg tapentadol free base equiv/kg, 3 h, mean, read-out: Plasma concentration of tapentadol valine carbamate) was 68.8 ng/mL. The concentration at 4 h ([1]; male, Sprague Dawley, rat, plasma, po, 10 mg tapentadol free base equiv/kg, oral tapentadol valine carbamate 10 mg tapentadol free base equiv/kg, 4 h, mean, read-out: Plasma concentration of tapentadol valine carbamate) was 43.1 ng/mL, the concentration at 6 h ([1]; male, Sprague Dawley, rat, plasma, po, 10 mg tapentadol free base equiv/kg, oral tapentadol valine carbamate 10 mg tapentadol free base equiv/kg, 6 h, mean, read-out: Plasma concentration of tapentadol valine carbamate) was 28.7 ng/mL and the concentration at 8 h ([1]; male, Sprague Dawley, rat, plasma, po, 10 mg tapentadol free base equiv/kg, oral tapentadol valine carbamate 10 mg tapentadol free base equiv/kg, 8 h, mean, read-out: Plasma concentration of tapentadol valine carbamate) was 24.1 ng/mL. For the same molecule, the concentration at 12 h ([1]; male, Sprague Dawley, rat, plasma, po, 10 mg tapentadol free base equiv/kg, oral tapentadol valine carbamate 10 mg tapentadol free base equiv/kg, 12 h, mean, read-out: Plasma concentration of tapentadol valine carbamate) was 13.6 ng/mL, the concentration at 24 h ([1]; male, Sprague Dawley, rat, plasma, po, 10 mg tapentadol free base equiv/kg, oral tapentadol valine carbamate 10 mg tapentadol free base equiv/kg, 24 h, mean) was 0.984 ng/mL and the half-life ([1]; male, Sprague Dawley, rat, plasma, po, 10 mg tapentadol free base equiv/kg, oral tapentadol valine carbamate 10 mg tapentadol free base equiv/kg, calculated as ln2/mean k, read-out: t½ of tapentadol valine carbamate (converted)) was 3.54 h. It also gave an AUC(0-t) ([1]; male, Sprague Dawley, rat, plasma, po, 10 mg tapentadol free base equiv/kg, oral tapentadol valine carbamate 10 mg tapentadol free base equiv/kg, individual animals 6-10, read-out: AUCt of tapentadol valine carbamate) of 560 ng·h/mL, a Cmax ([1]; male, Sprague Dawley, rat, plasma, po, 10 mg tapentadol free base equiv/kg, oral tapentadol valine carbamate 10 mg tapentadol free base equiv/kg, individual animals 6-10, read-out: Cmax of tapentadol valine carbamate) of 85.8 ng/mL and a half-life ([1]; male, Sprague Dawley, rat, plasma, po, 10 mg tapentadol free base equiv/kg, oral tapentadol valine carbamate 10 mg tapentadol free base equiv/kg, individual animals 6-10, read-out: t½ of tapentadol valine carbamate (converted)) of 4.08 h. It also gave an AUC(0-t) ([1]; male, Sprague Dawley, rat, plasma, po, 10 mg tapentadol free base equiv/kg, oral tapentadol valine carbamate 10 mg tapentadol free base equiv/kg, mean, read-out: AUCt of tapentadol valine carbamate) of 567 ng·h/mL, a Cmax ([1]; male, Sprague Dawley, rat, plasma, po, 10 mg tapentadol free base equiv/kg, oral tapentadol valine carbamate 10 mg tapentadol free base equiv/kg, mean, read-out: Cmax of tapentadol valine carbamate) of 93.9 ng/mL and a Tmax ([1]; male, Sprague Dawley, rat, plasma, po, 10 mg tapentadol free base equiv/kg, oral tapentadol valine carbamate 10 mg tapentadol free base equiv/kg, median, read-out: Tmax of tapentadol valine carbamate) of 1 h. The concentration at 0.083 h ([2]; 0.083 h) was 790 ng/mL, the concentration at 0.25 h ([2]; 0.25 h) was 783 ng/mL and the concentration at 1 h ([2]; 1 h) was 222 ng/mL. For the same molecule, the concentration at 2 h ([2]; 2 h) was 92.3 ng/mL and the concentration at 4 h ([2]; 4 h) was 11.8 ng/mL.
